According to US20260240962A1, “PHARMACEUTICAL COMPOSITION FOR TREATING AND/OR PREVENTING CANCER” (TORAY INDUSTRIES, INC., priority 2023, published 2026):

How the values were obtained:
HCT-116 = experiment: Antitumor effect in HCT-116 cancer-bearing nude mice; assay type: in vivo; settings: HCT-116 subcutaneous in nude mice; 10 mg/kg twice a week into the tail vein
Procedure: The antitumor effect of Dorsomorphin, which was an AMPK inhibitor, confirmed in Example 9 to have the effect of reducing the expression of the CAPRIN-1 protein on the membrane surface of the cancer cells, was confirmed. HCT-116, which were the cancer cells confirmed to express the CAPRIN-1 protein on the cell membrane surface were cultured in a normal culture flask using a complete medium containing 10% fetal bovine serum according to a standard method, and then mixed with RPMI-1640 medium containing 20% Matrigel Basement Membrane Matrix (Corning, 354234), and 1 to 2×10^7 cancer cells per mouse were subcutaneously inoculated into nude mice under anesthesia. After the cancer cells were inoculated, the size of the cancer in each cancer-bearing mouse was measured over time using a vernier caliper, and the tumor volume was calculated for each individual mouse using the formula: (length of the long axis of the cancer)×(length of the short axis of the cancer) 2×0.5 according to a standard method, and the average value of the administration group was calculated. After the cancer cells were inoculated, Dorsomorphin was administered at 10 mg/kg twice a week into the tail vein of each cancer-bearing mouse whose tumor size reached 100 to 200 mm^3 or more. […]

[1] = tested on: CAPRIN-1 protein on the membrane surface of the cancer cells; experiment: Flow cytometry of CAPRIN-1 protein on the membrane surface of HCT-116 treated with low molecular weight compounds; assay type: cell-based, human; settings: 1 to 3 days, vs DMSO negative control
Procedure: (§1) 2×10^5 cancer cells suspended in Dulbecco's PBS(−) containing 1% fetal bovine serum (hereinafter, 1% FCS-PBS(−)) were reacted with an antibody against CAPRIN-1 at a concentration of 1 to 10 μg/mL, and then allowed to react on ice (or at 4° C.) for 1 hour.
After the antibody reaction, cells were washed with 1% FCS-PBS (−) and then reacted with a fluorescently labeled anti-IgG secondary antibodies (FITC Goat anti-rabbit IgG (BD Biosciences, 554020), Alexa Fluor 488 anti-rabbit IgG (H+L) (Invitrogen, A21206), Alexa Fluor 647 anti-rabbit IgG (BioLegend, 406414). Alexa Fluor 488 F(ab′)2 anti-mouse IgG (H+L) (Invitrogen, A11017) or Alexa Fluor 488 anti-human IgG (H+L) (Invitrogen, A11013) at a concentration of 1 to 10 μg/mL for reaction with an antibody against CAPRIN-1, followed by 1 hour of reaction on ice (or at 4° C.). After reaction with the fluorescently labeled secondar antibodies, cells were washed with 1% FCS-PBS(−) and then reacted with a PI (propidium iodide) solution (DOJINDO, 341-07881) or Fixable Viability Stain 450 (BD Horizon) prepared at a concentration of 0.1 μg/mL for 15 minutes. Cells were then washed with 1% FCS-PBS(−) and then the scattered light intensity and fluorescence intensity were measured using a flow cytometer according to a standard method.

SK-MEL-5 = experiment: Soft agar colony formation assay (anchorage-independent colony-forming ability), SK-MEL-5; assay type: cell-based, human; settings: SK-MEL-5 treated with trypsin vs not treated, 2 to 4 weeks
Procedure: (§2) 10^4 cells of each of the above cells were suspended in DMEM medium gel containing 10% fetal bovine serum containing 0.4% soft agar (Difco, 214220), added to a Petri dish with a diameter of 35 mm, and then incubated under an environment of 37° C. and 5% CO2 for 2 to 4 weeks. After incubation, the number of colonies formed in the gel was counted.
SK-MEL-5, winch were the cancer cells confirmed to express the CAPRIN-1 protein on the cell membrane surface in Example 3, was cultured in a normal culture flask using a complete medium containing 10% fetal bovine serum under an environment of 37° C. and 5% CO2. The cultured SK-MEL-5 was collected from the flask using a cell scraper. […] On the other hand, […], SK-MEL-5, […], was used to evaluate the anchorage-independent colony-forming ability by soft agar colony formation assay. 10^4 cells of each of the above cells were suspended in a DMEM medium gel containing 10% fetal bovine serum containing 0.4% soft agar (Difco, 214220), added to a Petri dish with a diameter of 35 mm, and then incubated under an environment of 37° C. and 5% CO2 for 2 to 4 weeks.

[2] = tested on: CAPRIN-1 protein on the cell membrane surface; experiment: Flow cytometry of CAPRIN-1 protein on the cell membrane surface after trypsin treatment; assay type: cell-based, human; settings: Trypsin/EDTA (0.05%) for 5 minutes, vs cells not treated
Procedure: as §1, with “The expression of the CAPRIN-1 protein on the cell membrane surface of the cancer cells for which the expression of the CAPRIN-1 gene was confirmed in Example 1 was confirmed by flow cytometry. 2×10^5” for “2×10^5”, “hour. […]” for “hour.”
SK-MEL-5 and OVCAR3, which were the cancer cells confirmed to express the CAPRIN-1 protein on the cell membrane surface in Example 3, were cultured in a normal culture flask using a complete medium containing 10% fetal bovine serum under an environment of 37° C. and 5% CO2. […] Portions of the collected cells were treated with a solution containing trypsin, which was a digestive enzyme, (Thermo, Trypsin/EDTA (0.05%)) for 5 minutes, and then the proportions of live cells and dead cells stained with trypan blue were measured and calculated using the trypan blue exclusion method according to a standard method, and then the cell density of live cells was calculated. […]

OVCAR3 = experiment: Soft agar colony formation assay (anchorage-independent colony-forming ability), OVCAR3; assay type: cell-based, human; settings: OVCAR3 treated with trypsin vs not treated, 2 to 4 weeks
Procedure: as §2

c1cc(-c2cnn3cc(-c4ccc(OCCN5CCCCC5)cc4)cnc23)ccn1 [Dorsomorphin]
tumor size, when the tumor size of the untreated cancer-bearing mice was taken as 100% (HCT-116): ≤ 70%

FC(F)(F)c1ccc(/C=C/c2nc(COc3ccc(CCCCn4ccnn4)cc3)co2)cc1 [Mubritinib]
expression of the CAPRIN-1 protein on the membrane surface of the cancer cells ([1]; final concentration 1 μM): clearly reduced

Cn1c2cccc(=O)c-2nc2ccccc21 [Pyocyanin]
expression of the CAPRIN-1 protein on the membrane surface of the cancer cells ([1]; final concentration 20 μM): clearly reduced

O=C(N/N=C/c1ccc(O)c(O)c1)c1cc2ccccc2cc1O [Dynasore]
expression of the CAPRIN-1 protein on the membrane surface of the cancer cells ([1]; final concentration 100 μM): clearly reduced

Cc1ccc(C(=O)Cn2c3c(sc2=N)CCCC3)cc1 [Pifithrin-α]
expression of the CAPRIN-1 protein on the membrane surface of the cancer cells ([1]; final concentration 30 μM): clearly reduced

Cc1cc(-c2ccc(CC(=O)Nc3ccc(-c4cccnc4)cc3)cc2)ccn1 [Wnt-C59]
expression of the CAPRIN-1 protein on the membrane surface of the cancer cells ([1]; final concentration 5 μM): clearly reduced

CCN(CC)CCCC(C)Nc1nc(C)cc(Nc2ccc3nc(C)cc(N)c3c2)n1.Cl.Cl.Cl (racemic) [Rac1 inhibitor (CAS #1177865-17-6)]
expression of the CAPRIN-1 protein on the membrane surface of the cancer cells ([1]; final concentration 250 nM): clearly reduced

COc1cccc(-c2cc(NCc3ccc4c(c3)OCO4)nc(N)n2)c1 [Wnt agonist 1]
expression of the CAPRIN-1 protein on the membrane surface of the cancer cells ([1]; final concentration 20 μM): clearly reduced

COc1ccc(CNC(=O)Nc2ncc([N+](=O)[O-])s2)cc1 [GSK-3D inhibitor VIII]
expression of the CAPRIN-1 protein on the membrane surface of the cancer cells ([1]; final concentration 10 μM): clearly reduced

B1: trypsin (protein, UniProt P00761 9-231, looked up)
Trypsin: IVGGYTCAANSIPYQVSLNSGSHFCGGSLINSQWVVSAAHCYKSRIQVRLGEHNIDVLEGNEQFINAAKIITHPNFNGNTLDNDIMLIKLSSPATLNSRVATVSLPRSCAAAGTECLISGWGNTKSSGSSYPSLLQCLKAPVLSDSSCKSSYPGQITGNMICVGFLEGGKDSCQGDSGGPVVCNGQLQGIVSWGYGCAQKNKPGVYTKVCNYVNWIQQTIAAN
modifications: EDTA solution
notes: hydrolytic / digestive enzyme; solution containing trypsin (Thermo, Trypsin/EDTA (0.05%))
number of colonies formed (SK-MEL-5): significantly lower | expression of the CAPRIN-1 protein on the cell membrane surface ([2]; OVCAR3): reduced | expression of the CAPRIN-1 protein on the cell membrane surface ([2]; SK-MEL-5): reduced | number of colonies formed (OVCAR3): significantly lower
